Results reported in the NIST ThermoML archive (doi:10.1016/j.tca.2012.12.008).
± gives the expanded uncertainty stated by the source.

Test: xn = mol fraction of the nth substance listed
Conditions: 101 kPa, Liquid; for viscosity: Capillary tube (Ostwald / Ubbelohde) method; for mass density: Vibrating tube method

CCC(C)=O [butanone] + CC(C)O
Conditions	mass density, 298.15 K [kg/m3]	mass density, 303.15 K [kg/m3]	mass density, 308.15 K [kg/m3]	mass density, 313.15 K [kg/m3]	viscosity, 298.15 K [mPa·s]	viscosity, 303.15 K [mPa·s]	viscosity, 308.15 K [mPa·s]	viscosity, 313.15 K [mPa·s]
x1 = 0.0819	782.25 ± 0.24	777.85 ± 0.24	772.94 ± 0.24	768.48 ± 0.24	1.657 ± 0.013	1.503 ± 0.012	1.371 ± 0.011	1.245 ± 0.01
x1 = 0.1607	783.38 ± 0.24	778.97 ± 0.24	774.09 ± 0.24	769.53 ± 0.24	1.358 ± 0.011	1.286 ± 0.01	1.208 ± 0.009	1.139 ± 0.009
x1 = 0.24	784.62 ± 0.24	780.11 ± 0.24	775.17 ± 0.24	770.66 ± 0.24	1.142 ± 0.009	1.11 ± 0.009	1.077 ± 0.009	1.041 ± 0.008
x1 = 0.349	786.42 ± 0.24	781.79 ± 0.24	776.85 ± 0.24	772.33 ± 0.24	0.939 ± 0.008	0.924 ± 0.007	0.909 ± 0.007	0.895 ± 0.007
x1 = 0.4405	788.05 ± 0.24	783.31 ± 0.24	778.38 ± 0.24	773.86 ± 0.24	0.818 ± 0.007	0.807 ± 0.007	0.795 ± 0.006	0.784 ± 0.006
x1 = 0.5593	790.28 ± 0.24	785.48 ± 0.24	780.55 ± 0.24	776.07 ± 0.24	0.702 ± 0.006	0.686 ± 0.006	0.669 ± 0.006	0.654 ± 0.006
x1 = 0.6511	792.07 ± 0.24	787.24 ± 0.24	782.38 ± 0.24	777.9 ± 0.24	0.626 ± 0.005	0.607 ± 0.005	0.587 ± 0.005	0.569 ± 0.005
x1 = 0.7392	793.87 ± 0.24	789.03 ± 0.24	784.21 ± 0.24	779.74 ± 0.24	0.551 ± 0.005	0.539 ± 0.005	0.527 ± 0.005	0.515 ± 0.005
x1 = 0.8496	796.19 ± 0.24	791.36 ± 0.24	786.58 ± 0.24	782.16 ± 0.24	0.465 ± 0.004	0.456 ± 0.004	0.448 ± 0.004	0.44 ± 0.004
x1 = 0.937	798.09 ± 0.24	793.22 ± 0.24	788.46 ± 0.24	784.11 ± 0.24	0.417 ± 0.004	0.406 ± 0.004	0.396 ± 0.004	0.386 ± 0.004
x1 = 1	799.48 ± 0.24	794.63 ± 0.24	789.9 ± 0.24	785.52 ± 0.24	0.381 ± 0.004	0.368 ± 0.004	0.352 ± 0.004	0.339 ± 0.004
